Reference: PMC11655065, “Antimicrobial activity of iron-depriving pyoverdines against human opportunistic pathogens” (eLife, 2024)
In brackets after ≈: the same amount, converted by molar mass. Like-named read-outs stand apart in the source and are kept apart here. Square brackets hold non-standard residues; d marks the D form. Side chains are listed from the residue outwards. Peptide text beside a SMILES is read from it. * marks the point of attachment. ξ: configuration not given here. X1 = O=C(O)CCC(=O)NC1=Cc2cc(O)c(O)cc2N2C1=NCCC2C(=O)*; NH(1-OH-2-oxopiperidin-3-yl) = O=C1C(N*)CCCN1O; ξAsp(3ξ-OH) = NC(C(=O)O)C(O)C(=O)O

Key:
[1] = cited from earlier work; for iron association constant: ref Bohac et al., 2019, Shapiro and Wencewicz, 2016, Sheldon and Skaar, 2020
A. baumannii [2] = assay: Dose–response growth inhibition in CAA medium; type: cell-based, Acinetobacter baumannii; conditions: for inhibition of A. baumannii with iron supplementation: crude pyoverdine
Procedure: (§1) Pathogen overnight cultures were grown in either 8 mL tryptic soy broth (TSB; for the two S. aureus strains) or 8 mL lysogeny broth (LB; all other pathogens) in 50 mL tubes at 37°C and 220 rpm agitation. Following two washing steps with 0.8% NaCl, we adjusted the overnight cultures to an optical density at 600 nm (OD600) of 1. For overnights of environmental isolates, we followed the same procedure when working with low sample sizes, with the only difference being that culturing occurred at 28°C. For the large-scale screening experiments, we grew environmental isolates in 200 µL LB in 96-well plates shaken at 170 rpm. Cultures from plates were then directly used for experiments. For all main experiments (screen for bioactive pyoverdines and dose–response curves), we used CAA medium (1% casamino acids, 5 mM K2HPO4 * 3H2O,1 mM MgSO4*7 H2O, 25 mM HEPES buffer). This medium contains low levels of iron, triggering pyoverdine production ([Cunrath et al., 2016]).
(§2) To determine the inhibition potential of crude- and HPLC-purified pyoverdines, as well as ferribactin, we subjected A. baumannii. K. pneumoniae, P. aeruginosa, and S. aureus to serially diluted extracts. For this, the extracts were dissolved in CAA medium, filter sterilized, and diluted in the same medium. Bacterial overnight cultures were grown and prepared as described above and added to a total of 200 µL medium on a 96-well plate with four replicates per extract dilution. […] We incubated the plates at 37°C statically in the plate reader and measured the OD600 every 15 min for 24 hr. Before each measurement, plates were shaken for 15 s. We repeated the experiment up to five times with different initial extract starting concentrations. This was done to ensure that the full dose response to pyoverdine was captured. Thus, sample size per individual extract concentration varied between 4 and 20 replicates. We subtracted the blank values and the background values caused by the treatment of the respective extract concentration from the measured growth data and calculated the integral (area under the growth curve) using the R package Growthcurver ([Sprouffske and Wagner, 2016]). We then expressed growth relative to the control medium, where bacteria grew in CAA without extract or antibiotic addition. Finally, we plotted extract/antibiotic concentration vs. relative growth and fitted dose–response curves (see below).

S. aureus JE2 = assay: Dose–response growth inhibition in CAA medium; type: cell-based, Staphylococcus aureus
Procedure: as §1, with “This medium contains low levels of iron, triggering pyoverdine production ([Cunrath et al., 2016]).” left out
(§3) To determine the inhibition potential of crude- and HPLC-purified pyoverdines, as well as ferribactin, we subjected A. baumannii. […] We incubated the plates at 37°C statically in the plate reader and measured the OD600 every 15 min for 24 hr. […] We subtracted the blank values and the background values caused by the treatment of the respective extract concentration from the measured growth data and calculated the integral (area under the growth curve) using the R package Growthcurver ([Sprouffske and Wagner, 2016]). […]

K. pneumoniae [3] = assay: Dose–response growth inhibition in CAA medium; type: cell-based, Klebsiella pneumoniae
Procedure: as §1, §2

in vitro = type: cell-based; conditions: sheep
Procedure: To determine the hemolytic activity of pyoverdines, we quantified sheep erythrocyte hemolysis at different pyoverdine concentrations. We first centrifuged 25 mL of fresh sheep blood (Chemie Brunschwig AG, Switzerland) in a 50 mL tube at 1500 × g for 5 min at 4°C. Plasma was then gently aspirated, replaced by PBS, and tubes were gently inverted to mix. This washing procedure was repeated three times. Pyoverdines were diluted in PBS to final relative concentrations of 1, 0.5, 0.25, 0.2, 0.02, and 0.002. PBS and 0.1% Triton X-100 (Sigma-Aldrich) served as negative and positive control, respectively. 100 µL erythrocyte solution was mixed with either 100 µL pyoverdine solution or the controls in a 96-well plate in triplicates. Following an incubation at 37°C and 120 rpm for 1 hr, the plate was centrifuged at 1036 × g for 5 min at 4°C. Subsequently, 100 µL of the supernatant were transferred to a new 96-well plate. Hemoglobin release was measured at 570 nm in the plate reader and the percent hemolysis was calculated relative to the positive control [% hemolysis = (OD570 of sample – negative control)/(positive control – negative control)].

A. baumannii [4] = assay: Infection model: treatment of infected larvae; type: in vivo, Galleria mellonella; conditions: injected 4 hr post infection
Procedure: (§4) We tested the efficacy of pyoverdine to treat infections in larvae of the host model G. mellonella. All larvae were ordered from a local vendor (Bait Express GmbH, Basel, Switzerland) and stored without food at 16°C in the dark for up to 3 days. In a first step, we determined the mean weight of 336 final instar G. mellonella larvae (mean = 435 mg). For all subsequent experiments, we weighed the larvae and only used individuals with a mean weight ±20% (range: 340–530 mg). Larvae were immobilized on ice for 15 min, surface-sterilized with 70% ethanol, and randomly distributed to individual wells on 24-well plates. Ten larvae were used per infection–treatment combination. To inject bacteria and administer treatments, we used sterile needles (Sterican 26G, 0.45 × 12 mm [Braun]) and syringes (1 mL injekt-F [Braun]) attached to a syringe pump (New Era Pump Systems Inc, model NE-300) set to a flow rate of 5 mL/hr. For both infection and treatment delivery, a volume of 10 µL per larvae was injected between the posterior larval prolegs.
(§5) On the pathogen side, we determined the LD50 (lethal dose, killing 50% of the larvae) for A. baumannii (1.8 * 10^5 CFU/larvae) and K. pneumoniae (8.9 * 10^5 CFU/larvae) (Figure 5—figure supplement 1). For P. aeruginosa, we use 56 CFU/larvae because all doses tested killed 100% of the larvae (Figure 5—figure supplement 1). As negative control, we administered 10 µL/larvae of sterile PBS. Following infections, larvae were individually placed in wells of 24-well plates and incubated at 37°C in the dark for 4 hr.
(§6) On the treatment side, we used pyoverdines 3A06, 3G07, and s3b09 at three concentrations that were non-toxic for the NSC-34 cells. For this, we prepared stocks of 60 mg/mL, 30 mg/mL, and 6 mg/mL of crude pyoverdines. Since the injected treatment volume was 10 µL per larvae, the final pyoverdine concentrations were 0.6 mg, 0.3 mg, and 0.06 mg per larvae, respectively. When scaling theses concentrations to the doses used for the […] dose–response curves (Figure 4), the relative pyoverdine concentrations were 0.1, 0.05, and 0.01. Pyoverdine treatments were administered 4 hr after the infection through injections. Prior to treatment, larvae were immobilized on ice for 15 min. We also applied treatments to larvae infected with sterile PBS to quantify potential negative effects of the treatment in the absence of an infection. Following treatment, larvae were put back to their allocated well of the 24-well plate and kept at 37°C in the dark.
(§7) From the 12th hour post infection (hpi) onward, we regularly checked the survival of all larvae for a total of 48 hpi. Specifically, larvae were poked with a pipette tip and individuals not responding to the physical stimulation were considered dead. […]

K. pneumoniae [5] = assay: Infection model: treatment of infected larvae; type: in vivo, Galleria mellonella
Procedure: as §4, §5, §6, §7

P. aeruginosa = conditions: 2012, 2013, cited from earlier work
A. baumannii [6] = tested on: A. baumannii; set-up: method as in Visca et al., 2013; de Léséleuc et al., 2012; conditions: ref Visca et al., 2013; de Léséleuc et al., 2012; cited from earlier work
P. aeruginosa PAO1 = assay: Dose–response growth inhibition in CAA medium; type: cell-based, Pseudomonas aeruginosa; conditions: HPLC-purified ferribactin, concentration gradient
Procedure: as §1, with “This medium contains low levels of iron, triggering pyoverdine production ([Cunrath et al., 2016]).” left out
as §3

[7] = HPLC-purified ferribactin, concentration gradient

In the case of `CC(=O)N(O)CCCCCNC(=O)CCC(=O)N(O)CCCCCNC(=O)CCC(=O)N(O)CCCCCN` [desferoxamine], the iron affinity ([1]; ref Elalfy et al., 2023) is given as 10^27 M^–1.

With `CC(NC(=O)C(NC(=O)C(CO)NC(=O)C(NC(=O)C(N)CCCCNC(=O)C(CC(=O)O)NC(=O)C1CCN=C2C(NC(=O)CCC(=O)O)=Cc3cc(O)c(O)cc3N21)C(O)C(=O)O)C(C)O)C(=O)NC(C(=O)NC(CCCCN)C(=O)NC1CCCN(O)C1=O)C(C)O` (stereo not shown) [pyoverdine s3b09] (H-K([Asp-X1])[ξAsp(3ξ-OH)]STATK-{NH(1-OH-2-oxopiperidin-3-yl)}; configuration not given here) the IC50 (A. baumannii [2]; Acinetobacter baumannii, HPLC-purified pyoverdine, CAA medium, growth relative to untreated control) was 5.04 µg/mL (≈ 3.73 µM), the “inhibition of A. baumannii with iron supplementation” value (A. baumannii [2]; CAA medium + 40 µM FeCl3) was “greatly reduced” and the “inhibition of A. baumannii with iron supplementation” value (A. baumannii [2]; CAA medium + 200 µM FeCl3) was “completely stalled”. The IC50 (S. aureus JE2; Staphylococcus aureus, JE2, HPLC-purified pyoverdine, growth relative to untreated control) was 12.2 µg/mL (≈ 9.01 µM), the “growth reduction (model fit)” value (K. pneumoniae [3]; HPLC-purified pyoverdine) was 9–12% and the “growth reduction (model fit)” value (K. pneumoniae [3]; crude-purified pyoverdine) was 9–12%. For the same molecule, the hemolysis at 1 h, 1 relative concentration (in vitro) was 5.92%, the “reduction of the risk of death, significance” value (A. baumannii [4]; same tendency observed, z = –1.496, p=0.135) was “not significant” and the “relationship between pyoverdine concentration and time-to-death” value (K. pneumoniae [5]; relative concentrations 0-0.1, quadratic term significant) was “hump-shaped”.

In the case of pyoverdine, the “iron affinity (Ka, association constant)” value ([1]; ref Meyer and Abdallah, 1978) is given as 10^32 M^–1.

In the case of `Cc1c(O)c(=O)ccn1C` [deferiprone], the “minimum inhibitory concentration (MIC) relative to plasma levels in human therapy” value (P. aeruginosa; ref Thompson et al., Visca et al.) is listed as “up to 36.7 times”, the “growth suppression at sub-MIC levels” value (P. aeruginosa; ref Visca et al., de Léséleuc et al.) is listed as “only partially suppressed the growth” and the “growth suppression at sub-MIC levels” value (A. baumannii [6]) is listed as “only partially suppressed the growth”.

For fimsbactin, the iron association constant [1] is listed as 10^27 M^–1.

With `CC(O)C(NC(=O)C(CO)NC(=O)C(NC(=O)C(N)CCCCNC(=O)C(CC(=O)O)NC(=O)C1CCN=C2C(NC(=O)CCC(=O)O)=Cc3cc(O)c(O)cc3N21)C(O)C(=O)O)C(=O)NC(CO)C(=O)NC(CCCCN)C(=O)NC1CCCN(O)C1=O` (stereo not shown) [pyoverdine 3A06] (H-K([Asp-X1])[ξAsp(3ξ-OH)]STSK-{NH(1-OH-2-oxopiperidin-3-yl)}; configuration not given here) the “growth reduction (model fit)” value (K. pneumoniae [3]; crude-purified pyoverdine) was 9–12%, the hemolysis at 1 h, 1 relative concentration (in vitro) was 2.01% and the “reduction of the risk of death (hazard) vs untreated infection” value (A. baumannii [4]; relative concentration 0.05, 48 hr, Cox regression) was 57.9%. For the same molecule, the “reduction of the risk of death (hazard) vs untreated infection” value (K. pneumoniae [5]; relative concentration 0.01, injected 4 hr post infection, 48 hr, Cox regression) was 51.5%.

In the case of `O=C(N[C@H]1COC(=O)[C@@H](NC(=O)c2cccc(O)c2O)COC(=O)[C@@H](NC(=O)c2cccc(O)c2O)COC1=O)c1cccc(O)c1O` [enterobactin], the iron affinity ([1]; ref Harris et al., 1979) is listed as 10^52 M^–1.

In the case of acinetobactin, the iron association constant [1] is listed as 10^26 M^–1.

With ferribactin [reference compound] the growth inhibition (A. baumannii [2]; HPLC-purified ferribactin, concentration gradient, CAA medium) was “no growth inhibition”, the growth inhibition (S. aureus JE2; [7]) was “no growth inhibition” and the growth inhibition (K. pneumoniae [3]; [7]) was “no growth inhibition”. The growth inhibition (P. aeruginosa PAO1) was “no growth inhibition”.
